This is an account of results in patent US20220002297A1, “POLYMORPHS OF X842” (Cinclus Pharma AG, priority 2020, published 2022).

The structures appear in SMILES notation.

The conditions of data set [1]: Phase I and II studies; cited from earlier work.
Another data set deals with intragastric acidity. Format: in vivo, human. The procedure:
(§1) X842 is a prodrug of Linaprazan, which was disclosed in WO 99/55706 and previously studied in Phase I and II studies. […] A clinical Phase I study has shown that administration of a single dose of X842 can maintain the intragastric acidity above pH 4 for 24 hours. X842 is therefore tailored for patients with severe erosive gastroesophageal reflux disease (eGERD).
Following absorption into the blood stream, X842 is quickly metabolized into Linaprazan, which is the active metabolite of X842. Whereas the plasma concentration of X842 is only very low and difficult to determine, the plasma concentration of Linaprazan may be determined instead. […] It is estimated that this requires a minimal plasma concentration (Cmin) of Linaprazan of at least about 240 nmol/L after 22 hours. At such doses, a once daily oral administration of the formulation would be sufficient. Therefore, in another aspect, the invention relates to the pharmaceutical composition as disclosed herein, wherein a unit dose of the composition provides a Cmin of Linaprazan in a human of at least about 240 nmol/L after 22 hours following oral administration of the pharmaceutical composition to said human.

Data set [2] is described as follows: Thermogravimetric analysis (TGA). Format: physicochemical. To be noted: for degradation of the sample (temperature): 25 to 320° C., 10° C./minute. How it is done: Analyses were performed on a Mettler Toledo TGA/DSC1 instrument, coupled with a Thermo Nicolet iS10 spectrometer. The sample was flushed with dry nitrogen gas during the analysis. The sample was scanned from 25 to 320° C. with a scan rate of 10° C./minute.
Degradation of the sample occurred at approximately 248° C.
Melting of the sample occurred at approximately 211° C., and degradation of the sample occurred at approximately 251° C.

A short description of data set [3]: Half-life in the body, X842 compared to Linaprazan. It counts as in vivo. To be noted: in comparison with Linaprazan. How it is done:
as §1

Data set [4] can be described thus: Dynamic vapour sorption (DVS) analysis, hygroscopicity. It counts as physicochemical. The procedure: Analyses were performed on a Surface Measurement Systems DVS Intrinsic instrument. The relative humidity at 25° C. was calibrated against the deliquescense point of LiCL, Mg(NO3)2 and KCl. The sample (about 10-20 mg) was dried with nitrogen gas until a dm/dt below 0.002% per minute was reached. The instrument was running in dm/dt mode using a minimum dm/dt stability duration of 10 minutes and a maximum equilibrium time of 180 minutes. The sample was subjected to a sorption-desorption cycle running from 0 to 95 to 0% RH. One cycle consisted of 20 steps, those between 0 and 90% RH were taken in 10% RH each.
The hygroscopicity of Form A was investigated using DVS at 25° C. The water uptake at 25° C./80% RH was about 0.08%, which means that Form A is non-hygroscopic.

As to `Cc1cccc(C)c1CNc1cc(C(=O)NCCO)cn2c(C)c(C)nc12` [Linaprazan], in data set [1], the “elimination from the body” value is reported as “quickly eliminated” and the tolerability entry is “well tolerated”. Further, the “minimal plasma concentration (Cmin) of Linaprazan required to maintain intra-gastric pH above 4 for 24 hours” value in the data set with intragastric acidity (human, in vivo, po, 22 h) is recorded as “at least 240 nmol/L”.

Regarding `Cc1cccc(C)c1CNc1cc(C(=O)NCCOC(=O)CCCC(=O)O)cn2c(C)c(C)nc12` [Form B, 5-{2-[({8-[(2,6-dimethylbenzyl)amino]-2,3-dimethylimidazo[1,2-a]pyridine-6-yl}carbonyl)-amino]ethoxy}-5-oxopentanoic acid], the “degradation of the sample (temperature)” value in data set [2] is “approximately 251 °C”. The weight loss entry in data set [2] (in the range of 128-220° C., attributed to loss of isopropyl alcohol) is “approximately 1%”.

Take `Cc1cccc(C)c1CNc1cc(C(=O)NCCOC(=O)CCCC(=O)O)cn2c(C)c(C)nc12` [Form X842, 5-{2-[({8-[(2,6-dimethylbenzyl)amino]-2,3-dimethylimidazo[1,2-a]pyridine-6-yl}carbonyl)-amino]ethoxy}-5-oxopentanoic acid]: in data set [3], the “half-life in the body” value is reported as “longer”. Moreover, in the data set on intragastric acidity (after administration of X842, Phase I), the “time intragastric pH is maintained above 4” value turned out to be 24 hours.

As to `Cc1cccc(C)c1CNc1cc(C(=O)NCCOC(=O)CCCC(=O)O)cn2c(C)c(C)nc12` [Form A, 5-{2-[({8-[(2,6-dimethylbenzyl)amino]-2,3-dimethylimidazo[1,2-a]pyridine-6-yl}carbonyl)-amino]ethoxy}-5-oxopentanoic acid], the hygroscopicity result in data set [4] (DVS at 25° C.) is listed as “non-hygroscopic”. For the same molecule, the water uptake entry in data set [4] (DVS, 25° C./80% RH) is “about 0.08%”. The “change of form after DVS (X-ray powder diffractograms before and after)” value in data set [4] (sorption-desorption cycle 0 to 95 to 0% RH, 25° C.) is “no change of form occurred”. For the same molecule, the “degradation of the sample (temperature)” value in data set [2] is “approximately 248 °C”. In addition, the “weight loss before melting” value in data set [2] (before melting at approximately 217° C.) is given as “did not show any weight loss”.
